Results as given in patent US9206122B2, “Pesticidal arylpyrrolidines” (BAYER INTELLECTUAL PROPERTY GMBH, priority 2012, dated 2015).

Assays:
Format in all cases: in vivo
Boophilus microplus = Boophilus microplus injection test; conditions: 20 μg/animal, injected into abdomen of adult engorged female ticks; egg deposition monitored after 7 days
Method: Boophilus microplus Injectiontest Solvent: dimethyl sulfoxide To produce a suitable preparation of active compound, 10 mg of active compound are dissolved in 0.5 ml solvent, and the concentrate is diluted with solvent to the desired concentration. Five adult engorged female ticks (Boophilus microplus) are injected with 1 μl compound solution into the abdomen. Ticks are transferred into replica plates and incubated in a climate chamber. After 7 days, the egg deposition of fertile eggs is monitored. Eggs where fertility is not visible are stored in glass tubes in a climate chamber till hatching after about 42 days. An efficacy of 100% means that all eggs are infertile; 0% means that all eggs are fertile.

Musca domestica = assay: whole plant or invertebrate; conditions: 48 h
Method: (§1) Solvent: dimethyl sulfoxide
To produce a suitable preparation of active compound, 10 mg of active compound are dissolved in 0.5 ml solvent, and the concentrate is diluted with water to the desired concentration.
10 adult house flies (Musca domestica) are transferred into a container, containing a sponge soaked with a mixture of sugar solution and compound solution of the desired concentration.
After 2 days mortality in % is determined. 100% means that all the flies have been killed; 0% means that none of the flies have been killed.

Lucilia cuprina = assay: whole plant or invertebrate; conditions: in Equus caballus, 48 h
Method: solvent: dimethyl sulfoxide
10 mg active compound are dissolved in 0.5 ml Dimethylsulfoxid. Serial dilutions are made to obtain the desired rates.
Approximately 20 1st instar larvae of the Australian sheep blowfly (Lucilia cuprina) are transferred into a test tube containing minced horse meat and compound solution of the desired concentration.
After 2 days mortality in % is determined. 100% means that all the larvae have been killed; 0% means that none of the larvae have been killed.

Ctenocephalides felis = assay: whole plant or invertebrate; conditions: po, 48 h
Method: Ctenocephalides felis—Oral Test
as §1
To produce a suitable preparation of active compound, 10 mg of active compound are dissolved in 0.5 ml solvent, and the concentrate is diluted with cattle blood to the desired concentration.
Approximately 20 adult unfed cat fleas (Ctenocephalides felis) are placed in flea chambers. The blood chamber, sealed with parafilm on the bottom, are filled with cattle blood supplied with compound solution and placed on the gauze covered top of the flea chamber, so that the fleas are able to suck the blood. The blood chamber is heated to 37° C. whereas the flea chamber is kept at room temperature.
After 2 days mortality in % is determined 100% means that all the fleas have been killed; 0% means that none of the fleas have been killed.

Tetranychus urticae = assay: whole plant or invertebrate; conditions: 144 h
Method: Tetranychus urticae—Spray Test, OP-Resistant
(§2) Solvent: 78.0 parts by weight acetone
(§3) • 1.5 parts by weight dimethylformamide Emulsifier: 0.5 parts by weight alkylarylpolyglycolether
(§4) To produce a suitable preparation of active compound, 1 part by weight of active compound is mixed with the stated amount of solvent and emulsifier, and the concentrate is diluted with emulsifier-containing water to the desired concentration.
French beans (Phaseolus vulgaris) which are heavily infested with all stages of the two spotted spidermite (Tetranychus urticae), are sprayed with a preparation of the active ingredient of the desired concentration.
After 6 days, mortality in % is determined. 100% means that all spider mites have been killed and 0% means that none of the spider mites have been killed.

Spodoptera frugiperda = assay: whole plant or invertebrate; conditions: in Zea mays, 168 h
Method: Spodoptera frugiperda—Spray Test
as §2, §3
To produce a suitable preparation of the active compound, 1 part by weight of active compound is mixed with the stated amount of solvent and emulsifier, and the concentrate is diluted with emulsifier-containing water to the desired concentration.
Maize (Zea mays) leaf sections are sprayed with a preparation of the active ingredient of the desired concentration. Once dry, the leaf sections are infested with fall armyworm larvae (Spodoptera frugiperda).
After 7 days, mortality in % is determined 100% means that all caterpillars have been killed and 0% means that none of the caterpillars have been killed.

Phaedon cochleariae = assay: whole plant or invertebrate; conditions: in Brassica rapa, foliar, 168 h
Method: Phaedon cochleariae—Spray Test
Solvent: 78.0 parts by weight of acetone
• 1.5 parts by weight of dimethylformamide Emulsifier: 0.5 parts by weight of alkylaryl polyglycolether
as §4
Chinese cabbage (Brassica pekinensis) leaf-disks are sprayed with a preparation of the active ingredient of the desired concentration. Once dry, the leaf disks are infested with mustard beetle larvae (Phaedon cochleariae).
After 7 days mortality in % is determined. 100% means that all beetle larvae have been killed and 0% means that none of the beetle larvae have been killed.

Myzus persicae = assay: whole plant or invertebrate; conditions: in Brassica rapa, foliar, 144 h
Method: Myzus persicae—Spray Test
as §2, §3, §4
Chinese cabbage (Brassica pekinensis) leaf disks infected with all instars of the green peach aphid (Myzus persicae), are sprayed with a preparation of the active ingredient of the desired concentration.
After 6 days, mortality in % is determined 100% means that all aphids have been killed; 0% means that none of the aphids have been killed.

CC(=O)NC1CCc2cc(N3CCC(c4cc(Cl)cc(Cl)c4)(C(F)(F)F)C3O)ccc21 (stereo not drawn) [I-A-1]
efficacy (100% means that all eggs are infertile) (Boophilus microplus): 100%

CCC(=O)NC1CCc2cc(N3CCC(c4cc(Cl)cc(Cl)c4)(C(F)(F)F)C3O)ccc21 (stereo not drawn) [I-A-2]
mortality at 100 ppm (Musca domestica): 80%
mortality at 100 ppm (Lucilia cuprina): 100%
efficacy (100% means that all eggs are infertile) (Boophilus microplus): 100%
mortality at 100 ppm (Ctenocephalides felis): 100%

CC(=O)NC1CCc2cc(N3CCC(c4cc(Cl)c(Cl)c(Cl)c4)(C(F)(F)F)C3O)ccc21 (stereo not drawn) [I-A-13]
efficacy (100% means that all eggs are infertile) (Boophilus microplus): 100%

CC(C)CC(=O)NC1CCc2cc(N3CCC(c4cc(Cl)c(Cl)c(Cl)c4)(C(F)(F)F)C3O)ccc21 (stereo not drawn) [I-A-18]
efficacy (100% means that all eggs are infertile) (Boophilus microplus): 100%

O=C(CC1CC1)NC1CCc2cc(N3CCC(c4cc(Cl)c(Cl)c(Cl)c4)(C(F)(F)F)C3O)ccc21 (stereo not drawn) [I-A-21]
efficacy (100% means that all eggs are infertile) (Boophilus microplus): 100%

O=C(NC1CCc2cc(N3CCC(c4cc(Cl)c(F)c(Cl)c4F)(C(F)(F)F)C3O)ccc21)C1CC1 (stereo not drawn) [I-A-31]
efficacy (100% means that all eggs are infertile) (Boophilus microplus): 100%

O=C(CC1CC1)NC1CCc2cc(N3CCC(c4cc(Cl)c(F)c(Cl)c4F)(C(F)(F)F)C3O)ccc21 (stereo not drawn) [I-A-33]
efficacy (100% means that all eggs are infertile) (Boophilus microplus): 100%

CC(=O)NC1CCc2cc(N3CCC(c4cc(C(F)(F)F)cc(C(F)(F)F)c4)(C(F)(F)F)C3O)ccc21 (stereo not drawn) [I-A-37]
efficacy (100% means that all eggs are infertile) (Boophilus microplus): 100%

CCC(=O)NC1CCc2cc(N3CCC(c4cc(C(F)(F)F)cc(C(F)(F)F)c4)(C(F)(F)F)C3O)ccc21 (stereo not drawn) [I-A-38, N-(5-{3-[3,5-bis(trifluoromethyl)phenyl]-2-hydroxy-3-(trifluoromethyl)pyrrolidin-1-yl}-2,3-dihydro-1H-inden-1-yl)propanamide]
mortality at 100 g/ha (Tetranychus urticae): 90%
mortality at 100 g/ha (Spodoptera frugiperda): 100%
mortality at 100 g/ha (Phaedon cochleariae): 100%
mortality at 100 g/ha (Myzus persicae): 100%

CCCC(=O)NC1CCc2cc(N3CCC(c4cc(C(F)(F)F)cc(C(F)(F)F)c4)(C(F)(F)F)C3O)ccc21 (stereo not drawn) [I-A-40]
efficacy (100% means that all eggs are infertile) (Boophilus microplus): 100%

O=C(NC1CCc2cc(N3CCC(c4cc(Cl)cc(C(F)(F)F)c4)(C(F)(F)F)C3O)ccc21)C1CC1 (stereo not drawn) [I-A-79]
efficacy (100% means that all eggs are infertile) (Boophilus microplus): 100%

O=C(NC1CCc2cc(N3CCC(c4ccc(F)c(C(F)(F)F)c4)(C(F)(F)F)C3O)ccc21)C1CC1 (stereo not drawn) [I-A-115]
efficacy (100% means that all eggs are infertile) (Boophilus microplus): 100%
